Measured values as given in US20040029906A1, “Inhibitors of dna polymerase sigma” (priority 2003, published 2004).
Entries after “also recorded” stand apart in the source; their conditions may differ. Like-named read-outs stand apart in the source and are kept apart here.

Key:
rat polymerase β = rat polymerase β (Rattus norvegicus, UniProt P06766); format: biochemical
Experimental: To a 50 μL of 62.5 mM 2-amino-2-methyl-1,3-propanediol buffer, pH 8.6, containing 10 mM MgCl2, 1 mM DTT, 100 μg/mL BSA, 6.25 μM dNTPs including 0.04 Ci/mmol [^3H]dTTP, and 0.25 mg/mL activated calf thymus DNA was added 6 μL of a solution containing each test compound and 4 μL of recombinant rat liver DNA polymerase β preparation (6.9 units, 4.8×10^4 units/mg). After incubation at 37° C. for 60 min, the radiolabeled DNA product was collected on DEAE-cellulose paper (DE-81), dried, and rinsed successively with 0.4 M K2HPO4, pH 9.4, and 95% ethanol for radioactivity determination.

[1] = molecular target: T1, yeast polymerase σ (Trf4, pol sigma-I) (Saccharomyces cerevisiae, UniProt P53632); assay: in vitro primer extension assay (5'-32P dT16 primer / poly dA template) for polymerase σ inhibition; format: biochemical, yeast (S. cerevisiae); conditions: for inhibition of polymerase σ in primer extension assay (FIG. 3), in words: 10 μM test compound, 5 min, dTTP, Mg2+; for concentration level of yeast pol sigma inhibition, in words: yeast pol sigma in vitro
T1 construct: His6 (peptide tag containing six histidines); made in house; host or cells: E. coli
T1 sequence (P53632 1-584): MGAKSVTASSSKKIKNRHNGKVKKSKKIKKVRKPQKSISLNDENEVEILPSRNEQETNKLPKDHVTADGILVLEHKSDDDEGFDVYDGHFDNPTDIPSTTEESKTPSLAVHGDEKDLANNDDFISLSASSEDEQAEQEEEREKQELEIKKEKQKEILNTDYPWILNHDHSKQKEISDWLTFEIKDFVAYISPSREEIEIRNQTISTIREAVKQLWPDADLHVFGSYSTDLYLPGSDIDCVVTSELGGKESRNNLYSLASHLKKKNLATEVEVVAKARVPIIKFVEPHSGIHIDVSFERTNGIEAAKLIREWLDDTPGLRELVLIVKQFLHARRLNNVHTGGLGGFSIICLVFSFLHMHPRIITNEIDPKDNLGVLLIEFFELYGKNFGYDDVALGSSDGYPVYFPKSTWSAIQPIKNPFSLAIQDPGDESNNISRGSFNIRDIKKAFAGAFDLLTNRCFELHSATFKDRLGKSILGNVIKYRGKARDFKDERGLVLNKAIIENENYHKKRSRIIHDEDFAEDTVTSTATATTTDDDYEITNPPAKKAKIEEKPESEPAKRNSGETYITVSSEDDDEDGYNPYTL
Experimental: Due to the predicted structural similarity between pol sigma and pol β (Aravind and Koonin, 1999, Nucleic Acids Research 27: 1609-1618) several known β polmerase inhibitors were tested to determine if they would inhibit pol sigma in vitro. […] The template primer was incubated in the presence of dTTP, Mg^2+ and 10 μM test compound for 5 min. […] Lane 1 of FIG. 3 is a control with only the DMSO solvent added to the poly dA/ oligo dT assay, the remaining lanes represent reactions run in the presence of one of the β polmerase inhibitors.
The assay system that has been employed to date employs a dT16 primer annealed to a poly dA template (average length 282 nucleotides). Primer elongation as a consequence of the addition of T residues (in a distributive fashion) has been monitored by polyacrylamide gel electrophoresis. For purposes of screening for inhibitors a variant of the DNA polymerase β this system will be used as follows: […]

[2] = test system: TRF4-deficient yeast (trf4 single mutants); assay: yeast spot growth assay, sensitivity to camptothecin; format: cell-based, S. cerevisiae (yeast)
Experimental: Spots represent serial 10-fold dilutions of saturated yeast cultures spotted onto Petri plates and incubated at 30° C. for 2 days in the presence of 10 ug/ml of camptothcin (FIG. 1A) or absence of drug (FIG. 1B).

[3] = P388D1 cell viability, camptothecin and ursolic acid alone or together (Trypan Blue, hemacytometer); conditions: mouse, % viability, 6 hr incubation, 1 μM camptothecin, 0.5 μM ursolic acid
From the text: (§1) Viable cells were scored by the use of a hemacytometer plate after straining with Trypan Blue.

P388D1 cells = assay: as above; conditions: 6 hr incubation, 1 μM camptothecin, 0.5 μM ursolic acid
From the text: as §1

[4] = molecular target: human pol sigma (pol sigma-1) (Homo sapiens, UniProt Q5XG87); assay: inhibition of human pol sigma; format: biochemical
human pol sigma (pol sigma-1), sequence (Q5XG87 whole entry): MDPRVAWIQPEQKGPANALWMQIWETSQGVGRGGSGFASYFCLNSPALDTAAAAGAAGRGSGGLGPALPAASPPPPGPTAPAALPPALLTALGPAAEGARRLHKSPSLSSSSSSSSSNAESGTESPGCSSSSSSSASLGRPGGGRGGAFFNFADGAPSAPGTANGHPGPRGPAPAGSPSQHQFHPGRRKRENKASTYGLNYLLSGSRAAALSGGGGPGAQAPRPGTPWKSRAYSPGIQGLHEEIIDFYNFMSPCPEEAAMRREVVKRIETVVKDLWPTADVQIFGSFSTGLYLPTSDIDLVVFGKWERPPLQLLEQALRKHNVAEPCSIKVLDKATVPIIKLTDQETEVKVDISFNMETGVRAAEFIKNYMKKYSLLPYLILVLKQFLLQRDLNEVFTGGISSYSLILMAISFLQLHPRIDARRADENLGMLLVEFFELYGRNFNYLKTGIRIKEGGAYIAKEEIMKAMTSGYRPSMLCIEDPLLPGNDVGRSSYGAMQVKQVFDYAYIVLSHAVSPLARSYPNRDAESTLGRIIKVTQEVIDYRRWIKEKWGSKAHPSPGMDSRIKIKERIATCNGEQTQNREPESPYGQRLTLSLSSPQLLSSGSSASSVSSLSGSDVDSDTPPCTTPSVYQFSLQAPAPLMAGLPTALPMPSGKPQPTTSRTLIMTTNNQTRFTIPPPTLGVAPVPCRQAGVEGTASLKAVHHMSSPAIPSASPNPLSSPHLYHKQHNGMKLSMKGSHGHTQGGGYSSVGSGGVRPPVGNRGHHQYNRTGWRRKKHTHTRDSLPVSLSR

C=C(C)[C@@H]1CC[C@]2(C(=O)O)CC[C@]3(C)[C@H](CC[C@@H]4[C@@]5(C)CC[C@H](O)C(C)(C)[C@@H]5CC[C@]43C)[C@@H]12 [betulinic acid]
rank order of potencies for rat polymerase β (rat polymerase β): ursolic acid >betulinic acid >> 3β-hydroxy-7,24-euphandien-26-oic acid
inhibition of polymerase σ in primer extension assay (FIG. 3), in words [1]: showing activity
concentration level of yeast pol sigma inhibition, in words [1]: micromolar concentrations

CC[C@@]1(O)C(=O)OCc2c1cc1n(c2=O)Cc2cc3ccccc3nc2-1 [camptothecin]
sensitivity of pol sigma-deficient yeast relative to wild-type strains, in words ([2]; 10 ug/ml, 30° C., 2 days, trf4::HIS3 and mcd1-1): hypersensitive
sensitivity of yeast cells lacking TRF4 to the agent relative to wild type ([2]; yeast cells lacking TRF4 (FIG. 1)): 10,000 fold
viability at 6 h ([3]; P388D1 cells (suspension culture), Experiment 1, P388D1 cells): 84%
viability at 6 h ([3]; P388D1 cells (suspension culture), Experiment 2, P388D1 cells): 77%
toxicity to P388D1 cells, in words (P388D1 cells): minimal toxicity

C/C(=C\CC[C@@H](C)[C@@H]1CC[C@]2(C)C3=CC[C@H]4C(C)(C)[C@@H](O)CC[C@]4(C)[C@H]3CC[C@@]12C)C(=O)O [(24E)-3beta-hydroxy-7,24-euphandien-26-oic acid]
rank order of potencies for rat polymerase β (rat polymerase β; rat polymerase β): ursolic acid >betulinic acid >> 3β-hydroxy-7,24-euphandien-26-oic acid
IC50 [1]: ~500 nM
pol sigma polymerase activity observed in presence of compound ([1]; 10 uM concentration): no activity whatsoever
inhibition of polymerase σ in primer extension assay (FIG. 3), in words [1]: most potent of the species tested
concentration level of yeast pol sigma inhibition, in words [1]: nanomolar level inhibitor
inhibitory activity against human pol sigma, in words [4]: inhibitory activity; also recorded: active, albeit only at micromolar concentrations; also recorded: also work to inhibit human pol sigma-1

C[C@H]1[C@H](C)CC[C@]2(C(=O)O)CC[C@]3(C)C(=CC[C@@H]4[C@@]5(C)CC[C@H](O)C(C)(C)[C@@H]5CC[C@]43C)[C@H]12 [ursolic acid]
rank order of potencies for rat polymerase β (rat polymerase β): ursolic acid >betulinic acid >> 3β-hydroxy-7,24-euphandien-26-oic acid
viability at 6 h ([3]; Experiment 1, P388D1 cells): 88%
viability at 6 h ([3]; Experiment 2, P388D1 cells): 77%
toxicity to P388D1 cells, in words (P388D1 cells): minimal toxicity
inhibition of polymerase σ in primer extension assay (FIG. 3), in words [1]: showing activity
concentration level of yeast pol sigma inhibition, in words [1]: micromolar concentrations
concentration level of yeast pol sigma inhibition, in words ([1]; listed as Ursolic acid): inhibits yeast polymerase σ
inhibitory activity against human pol sigma, in words [4]: inhibitory activity
